Where two headings read alike, the source gives them in different places.
Molecular target: T1, Human M4 (Homo sapiens, UniProt P08173)
T1 construct: expressed in transfected cells
T1 sequence (P08173 1-479): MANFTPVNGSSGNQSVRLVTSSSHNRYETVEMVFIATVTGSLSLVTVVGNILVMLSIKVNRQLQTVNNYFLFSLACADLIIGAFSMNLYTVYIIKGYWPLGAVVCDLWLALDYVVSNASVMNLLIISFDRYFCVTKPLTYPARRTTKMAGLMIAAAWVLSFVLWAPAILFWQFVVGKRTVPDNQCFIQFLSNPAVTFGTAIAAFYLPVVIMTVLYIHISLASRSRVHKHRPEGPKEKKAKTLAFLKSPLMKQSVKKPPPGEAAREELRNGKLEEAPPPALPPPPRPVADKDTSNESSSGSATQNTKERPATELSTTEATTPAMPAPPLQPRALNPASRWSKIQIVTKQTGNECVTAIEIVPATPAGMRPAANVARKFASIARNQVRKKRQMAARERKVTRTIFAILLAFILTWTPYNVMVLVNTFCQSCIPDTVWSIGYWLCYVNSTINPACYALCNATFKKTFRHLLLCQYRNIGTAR
Assay: mAChR M4 cell-based functional assay (calcium flux, potentiation of EC20 acetylcholine response), hM4-Gqi5 CHO-K1 cells
Conditions: for Emax at 30 µM: CHO-K1, Human M4, % ACh maximum at 30 μM, read-out: Emax (% ACh maximum at 30 μM); for Emax: CHO-K1, read-out: Emax (% ACh maximum at 30 μM)
How it was run: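 Positive allosteric modulation was scored as a concentration-dependent rise in the response to an EC20 dose of acetylcholine, added 144 s after the compound. Human M4-Gqi5 CHO-K1 cells carried Fluo-4 dye, and compounds ran as 11-point, 3-fold dilution series. EC50 and Emax came from four-parameter logistic fits of the FDSS fluorescence-ratio traces.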

[1] = Table 3, potentiation of EC20 acetylcholine response, calcium flux, CHO-K1 cells, read-out: Human M4 EC50

Compound | Emax at 30 µM (Table 3) | EC50 [1] | Emax | EC50
Cc1c(N2CCc3ncc(Oc4cccc(F)c4)cc3C2)nn2cnnc2c1C [Compound 160, 6-(7,8-dimethyl-[1,2,4]triazolo[4,3-b]pyridazin-6-yl)-3-(3-fluorophenoxy)-5,6,7,8-tetrahydro-1,6-naphthyridine] | 111% | 145 nM | – | –
COc1nc2c(cc1C)CN(c1nn3cnnc3c(C)c1C)CC2 [Compound 161, 6-(7,8-dimethyl-[1,2,4]triazolo[4,3-b]pyridazin-6-yl)-2-methoxy-3-methyl-5,6,7,8-tetrahydro-1,6-naphthyridine] | 105% | 2750 nM | – | –
Cc1cnc2c(c1)CN(c1nn3cc(C(=O)N4CCOCC4)nc3cc1C)CC2 [Compound 162, (7-methyl-6-(3-methyl-7,8-dihydro-1,6-naphthyridin-6(5H)-yl)imidazo[1,2-b]pyridazin-2-yl)(morpholino)methanone] | 105% | 846 nM | – | –
Cc1c(N2CCc3ncc(Nc4cnn(C)c4)cc3C2)nn2cnnc2c1C [Compound 163, 6-(7,8-dimethyl-[1,2,4]triazolo[4,3-b]pyridazin-6-yl)-N-(1-methyl-1H-pyrazol-4-yl)-5,6,7,8-tetrahydro-1,6-naphthyridin-3-amine] | 107% | 754 nM | – | –
Cc1c(N2CCc3ncc(Nc4ccnn4C)cc3C2)nn2cnnc2c1C [Compound 164, 6-(7,8-dimethyl-[1,2,4]triazolo[4,3-b]pyridazin-6-yl)-N-(1-methyl-1H-pyrazol-5-yl)-5,6,7,8-tetrahydro-1,6-naphthyridin-3-amine] | 109% | 152 nM | – | –
CCC(C)(O)c1cnc2c(c1)CN(c1nn3cnnc3c(C)c1C)CC2 (stereo not drawn) [Compound 165, 2-(6-(7,8-dimethyl-[1,2,4]triazolo[4,3-b]pyridazin-6-yl)-5,6,7,8-tetrahydro-1,6-naphthyridin-3-yl)butan-2-ol] | 102% | 1870 nM | – | –
Cc1c(N2CCc3ncc(C(C)(O)C4CC4)cc3C2)nn2cnnc2c1C (stereo not drawn) [Compound 166, 1-cyclopropyl-1-(6-(7,8-dimethyl-[1,2,4]triazolo[4,3-b]pyridazin-6-yl)-5,6,7,8-tetrahydro-1,6-naphthyridin-3-yl)ethan-1-ol] | 95% | 1850 nM | – | –
Cc1cc2c(nc1C)CCN(c1nn3cnnc3c(C)c1C)C2 [Compound 167, 6-(7,8-dimethyl-[1,2,4]triazolo[4,3-b]pyridazin-6-yl)-2,3-dimethyl-5,6,7,8-tetrahydro-1,6-naphthyridine] | – | 188 nM | 106% | –
Cc1cnc2c(c1)CN(c1nn3cc(C(=O)NC4CC4)nc3cc1C)CC2 [Compound 168, N-cyclopropyl-7-methyl-6-(3-methyl-7,8-dihydro-1,6-naphthyridin-6(5H)-yl)imidazo[1,2-b]pyridazine-2-carboxamide] | 54% | 3250 nM | – | –
Cc1cnc2c(c1)CN(c1nn3cc(C(=O)N4CCN(C)CC4)nc3cc1C)CC2 [Compound 169, (7-methyl-6-(3-methyl-7,8-dihydro-1,6-naphthyridin-6(5H)-yl)imidazo[1,2-b]pyridazin-2-yl)(4-methylpiperazin-1-yl)methanone] | 111% | 1180 nM | – | –
Cc1cnc2c(c1)CN(c1nn3cc(C(=O)N4CCCCC4)nc3cc1C)CC2 [Compound 170, (7-methyl-6-(3-methyl-7,8-dihydro-1,6-naphthyridin-6(5H)-yl)imidazo[1,2-b]pyridazin-2-yl)(piperidin-1-yl)methanone] | 105% | 934 nM | – | –
Cc1cnc2c(c1)CN(c1nn3cc(C(=O)N4CCCC4)nc3cc1C)CC2 [Compound 171, [7-Methyl-6-(3-methyl-7,8-dihydro-5H-1,6-naphthyridin-6-yl)imidazo[1,2-b]pyridazin-2-yl]-pyrrolidin-1-yl-methanone] | 107% | 1040 nM | – | –
Cc1c(N2CCc3ncc(-c4cccnc4C(F)(F)F)cc3C2)nn2cnnc2c1C [Compound 172, 6-(7,8-dimethyl-[1,2,4]triazolo[4,3-b]pyridazin-6-yl)-3-(2-(trifluoromethyl)pyridin-3-yl)-5,6,7,8-tetrahydro-1,6-naphthyridine] | 73% | 3530 nM | – | –
COc1ncc(-c2cnc3c(c2)CN(c2nn4cnnc4c(C)c2C)CC3)cc1Cl [Compound 173, 3-(5-chloro-6-methoxypyridin-3-yl)-6-(7,8-dimethyl-[1,2,4]triazolo[4,3-b]pyridazin-6-yl)-5,6,7,8-tetrahydro-1,6-naphthyridine] | 80% | 937 nM | – | –
COc1nc(Cl)ccc1-c1cnc2c(c1)CN(c1nn3cnnc3c(C)c1C)CC2 [Compound 174, 3-(6-chloro-2-methoxypyridin-3-yl)-6-(7,8-dimethyl-[1,2,4]triazolo[4,3-b]pyridazin-6-yl)-5,6,7,8-tetrahydro-1,6-naphthyridine] | 85% | 1070 nM | – | –
CCc1ccncc1-c1cnc2c(c1)CN(c1nn3cnnc3c(C)c1C)CC2 [Compound 175, 6-(7,8-dimethyl-[1,2,4]triazolo[4,3-b]pyridazin-6-yl)-3-(4-ethylpyridin-3-yl)-5,6,7,8-tetrahydro-1,6-naphthyridine] | 81% | 155 nM | – | –
COc1ncc(-c2cnc3c(c2)CN(c2nn4cnnc4c(C)c2C)CC3)cc1F [Compound 176, 6-(7,8-dimethyl-[1,2,4]triazolo[4,3-b]pyridazin-6-yl)-3-(5-fluoro-6-methoxypyridin-3-yl)-5,6,7,8-tetrahydro-1,6-naphthyridine] | – | – | 89% | 587 nM
Cc1c(N2CCc3ncc(-c4cnc(Cl)c(F)c4)cc3C2)nn2cnnc2c1C [Compound 177, 3-(6-chloro-5-fluoropyridin-3-yl)-6-(7,8-dimethyl-[1,2,4]triazolo[4,3-b]pyridazin-6-yl)-5,6,7,8-tetrahydro-1,6-naphthyridine] | 85% | 747 nM | – | –
COc1cnc(Cl)c(-c2cnc3c(c2)CN(c2nn4cnnc4c(C)c2C)CC3)c1 [Compound 178, 3-(2-chloro-5-methoxypyridin-3-yl)-6-(7,8-dimethyl-[1,2,4]triazolo[4,3-b]pyridazin-6-yl)-5,6,7,8-tetrahydro-1,6-naphthyridine] | 85% | 578 nM | – | –
COc1ncc(F)cc1-c1cnc2c(c1)CN(c1nn3cnnc3c(C)c1C)CC2 [Compound 179, 6-(7,8-dimethyl-[1,2,4]triazolo[4,3-b]pyridazin-6-yl)-3-(5-fluoro-2-methoxypyridin-3-yl)-5,6,7,8-tetrahydro-1,6-naphthyridine] | 84% | 906 nM | – | –
Cc1c(N2CCc3ncc(-c4ccc(N(C)C)nc4)cc3C2)nn2cnnc2c1C [Compound 180, 5-(6-(7,8-dimethyl-[1,2,4]triazolo[4,3-b]pyridazin-6-yl)-5,6,7,8-tetrahydro-1,6-naphthyridin-3-yl)-N,N-dimethylpyridin-2-amine] | 74% | 284 nM | – | –
Cc1c(N2CCc3ncc(-c4cc(F)cnc4Cl)cc3C2)nn2cnnc2c1C [Compound 181, 3-(2-chloro-5-fluoropyridin-3-yl)-6-(7,8-dimethyl-[1,2,4]triazolo[4,3-b]pyridazin-6-yl)-5,6,7,8-tetrahydro-1,6-naphthyridine] | 95% | 539 nM | – | –
Cc1c(N2CCc3ncc(-c4cccnc4OC(C)C)cc3C2)nn2cnnc2c1C [Compound 182, 6-(7,8-dimethyl-[1,2,4]triazolo[4,3-b]pyridazin-6-yl)-3-(2-isopropoxypyridin-3-yl)-5,6,7,8-tetrahydro-1,6-naphthyridine] | 42% | 1100 nM | – | –
Cc1c(N2CCc3ncc(-c4cccnc4F)cc3C2)nn2cnnc2c1C [Compound 183, 6-(7,8-dimethyl-[1,2,4]triazolo[4,3-b]pyridazin-6-yl)-3-(2-fluoropyridin-3-yl)-5,6,7,8-tetrahydro-1,6-naphthyridine] | 93% | 695 nM | – | –
CC(=O)c1cnc2c(c1)CN(c1nn3cnnc3c(C)c1C)CC2 [Compound 184, 1-(6-(7,8-dimethyl-[1,2,4]triazolo[4,3-b]pyridazin-6-yl)-5,6,7,8-tetrahydro-1,6-naphthyridin-3-yl)ethan-1-one] | 96% | 704 nM | – | –
Cc1c(N2CCc3ncc(-c4ccc(N5CCCCC5)nc4)cc3C2)nn2cnnc2c1C [Compound 185, 6-(7,8-dimethyl-[1,2,4]triazolo[4,3-b]pyridazin-6-yl)-3-(6-(piperidin-1-yl)pyridin-3-yl)-5,6,7,8-tetrahydro-1,6-naphthyridine] | 86% | 333 nM | – | –
Cc1c(N2CCc3ncc(-c4ccc(N5CCOCC5)nc4)cc3C2)nn2cnnc2c1C [Compound 186, 4-(5-(6-(7,8-dimethyl-[1,2,4]triazolo[4,3-b]pyridazin-6-yl)-5,6,7,8-tetrahydro-1,6-naphthyridin-3-yl)pyridin-2-yl)morpholine] | 100% | 142 nM | – | –

Source: patent US20250002507A1, “7,8-DIHYDRO-5H-1,6-NAPHTHYRIDINE DERIVATIVES AS POSITIVE ALLOSTERIC MODULATORS OF THE MUSCARINIC ACETYLCHOLINE RECEPTOR M4 FOR TREATING NEUROLOGICAL AND PSYCHIATRIC DISORDERS” (Vanderbilt University, priority 2021, published 2025)
